Test results published in patent publication US20260053812A1, “METHODS OF TREATING HYPERTENSION WITH A COMBINATION OF AN ALDOSTERONE SYNTHASE INHIBITOR AND A DIURETIC” (Mineralys Therapeutics, Inc., priority 2022, published 2026).

Test: Adverse events (TEAEs, SAEs, AESI; Safety Analysis Set)
From the text: In analyses performed on the Safety Analysis Set, subjects will be analyzed according to their actual treatment received.

Question: Which “On-treatment TEAE, Hyperkalaemia, Mild, %” value (Part 1, 100 mg QD (N = 30)) does the source give for `CC(=O)N[C@H]1CC[C@H](NC(=O)CN2CCN(c3nncc(-c4ccc(C)cc4)n3)CC2)CC1` [Compound A HBr] here?
Answer: Its value is “(26.7) %”.

Question: What about the “On-treatment TEAE, Infections and infestations, %” value (Part 1, 100 mg QD (N = 30)) of the same compound?
Answer: The value was “(6.7) %”.

Question: What about the “On-treatment TEAE, Infections and infestations, Moderate, %” value (Part 1, 100 mg QD (N = 30)) of the same compound?
Answer: Its value is “(6.7) %”.

Question: What about the “On-treatment TEAE, Investigations, %” value (Part 1, 100 mg QD (N = 30)) of the same compound?
Answer: The value was “(26.7) %”.

Question: What about the “On-treatment TEAE, Investigations, Mild, %” value (Part 1, 100 mg QD (N = 30)) of the same compound?
Answer: The value was “(20.0) %”.

Question: What about the “On-treatment TEAE, Investigations, Moderate, %” value (Part 1, 100 mg QD (N = 30)) of the same compound?
Answer: The value was “(6.7) %”.

Question: What about the “On-treatment TEAE, Metabolism and nutrition disorders, %” value (Part 1, 100 mg QD (N = 30)) of the same compound?
Answer: The value was “(26.7) %”.

Question: What about the “On-treatment TEAE, Metabolism and nutrition disorders, Mild, %” value (Part 1, 100 mg QD (N = 30)) of the same compound?
Answer: The value was “(26.7) %”.

Question: And the “On-treatment TEAE, Psychiatric disorders, %” value (Part 1, 100 mg QD (N = 30))?
Answer: The value was “(6.7) %”.

Question: And the “On-treatment TEAE, Psychiatric disorders, Moderate, %” value (Part 1, 100 mg QD (N = 30))?
Answer: Its value is “(6.7) %”.

Question: And the “On-treatment TEAE, Urinary tract infection, %” value (Part 1, 100 mg QD (N = 30))?
Answer: The value was “(3.3) %”.

Question: And the “On-treatment TEAE, Vascular disorders, %” value (Part 1, 100 mg QD (N = 30))?
Answer: Its value is “(3.3) %”.

Question: What about the “On-treatment TEAE, Vascular disorders, Moderate, %” value (Part 1, 100 mg QD (N = 30)) of the same compound?
Answer: Its value is “(3.3) %”.

Question: What about the “Subjects with any On-treatment TEAEs leading to withdrawal from study drug, %” value (Part 1, 100 mg QD (N = 30)) of the same compound?
Answer: The value was “(13.3) %”.

Question: And the “Subjects with any On-treatment TEAEs, Mild, %” value (Part 1, 100 mg QD (N = 30))?
Answer: Its value is “(30.0) %”.

Question: What about the “Subjects with any On-treatment TEAEs, Moderate, %” value (Part 1, 100 mg QD (N = 30)) of the same compound?
Answer: Its value is “(23.3) %”.

Question: What about the “TEAE leading to permanent discontinuation from study drug, Activated partial thromboplastin time prolonged, %” value (Part 1, 100 mg QD (N = 30)) of the same compound?
Answer: Its value is “(3.3) %”.

Question: And the “TEAE leading to permanent discontinuation from study drug, Hyperkalaemia, %” value (Part 1, 100 mg QD (N = 30))?
Answer: Its value is “(6.7) %”.

Question: What about the “TEAE leading to permanent discontinuation from study drug, Hypotension, %” value (Part 1, 100 mg QD (N = 30)) of the same compound?
Answer: Its value is “(3.3) %”.

Question: And the “TEAE leading to permanent discontinuation from study drug, Investigations, %” value (Part 1, 100 mg QD (N = 30))?
Answer: The value was “(3.3) %”.

Question: What about the “TEAE leading to permanent discontinuation from study drug, Metabolism and nutrition disorders, %” value (Part 1, 100 mg QD (N = 30)) of the same compound?
Answer: Its value is “(6.7) %”.

Question: And the “TEAE leading to permanent discontinuation from study drug, Vascular disorders, %” value (Part 1, 100 mg QD (N = 30))?
Answer: Its value is “(3.3) %”.

Question: And the “On-treatment TEAE, Blood and lymphatic system disorders, %” value (Part 1, Active (N = 133))?
Answer: The value was “(1.5) %”.

Question: What about the “On-treatment TEAE, Blood and lymphatic system disorders, Mild, %” value (Part 1, Active (N = 133)) of the same compound?
Answer: Its value is “(1.5) %”.

Question: And the “On-treatment TEAE, Blood creatinine increased, %” value (Part 1, Active (N = 133))?
Answer: The value was “(2.3) %”.

Question: What about the “On-treatment TEAE, Blood creatinine increased, Mild, %” value (Part 1, Active (N = 133)) of the same compound?
Answer: Its value is “(2.3) %”.

Question: And the “On-treatment TEAE, Cardiac disorders, %” value (Part 1, Active (N = 133))?
Answer: The value was “(3.0) %”.

Question: And the “On-treatment TEAE, Cortisol decreased, %” value (Part 1, Active (N = 133))?
Answer: Its value is “(2.3) %”.

Question: And the “On-treatment TEAE, Cortisol decreased, Mild, %” value (Part 1, Active (N = 133))?
Answer: Its value is “(2.3) %”.

Question: What about the “On-treatment TEAE, Dizziness, %” value (Part 1, Active (N = 133)) of the same compound?
Answer: Its value is “(2.3) %”.

Question: And the “On-treatment TEAE, Gastrointestinal disorders, %” value (Part 1, Active (N = 133))?
Answer: The value was “(4.5) %”.

Question: And the “On-treatment TEAE, Gastrointestinal disorders, Mild, %” value (Part 1, Active (N = 133))?
Answer: The value was “(3.8) %”.

Question: And the “On-treatment TEAE, General disorders and administration site conditions, %” value (Part 1, Active (N = 133))?
Answer: Its value is “(3.8) %”.

Question: What about the “On-treatment TEAE, General disorders and administration site conditions, Mild, %” value (Part 1, Active (N = 133)) of the same compound?
Answer: Its value is “(1.5) %”.

Question: What about the “On-treatment TEAE, Glomerular filtration rate decreased, %” value (Part 1, Active (N = 133)) of the same compound?
Answer: The value was “(6.8) %”.

Question: And the “On-treatment TEAE, Glomerular filtration rate decreased, Mild, %” value (Part 1, Active (N = 133))?
Answer: Its value is “(6.0) %”.

Question: What about the “On-treatment TEAE, Headache, %” value (Part 1, Active (N = 133)) of the same compound?
Answer: Its value is “(2.3) %”.

Question: What about the “On-treatment TEAE, Headache, Mild, %” value (Part 1, Active (N = 133)) of the same compound?
Answer: The value was “(2.3) %”.

Question: What about the “On-treatment TEAE, Hyperkalaemia, %” value (Part 1, Active (N = 133)) of the same compound?
Answer: Its value is “(23.3) %”.

Question: And the “On-treatment TEAE, Hyperkalaemia, Mild, %” value (Part 1, Active (N = 133))?
Answer: Its value is “(19.5) %”.

Question: And the “On-treatment TEAE, Hyperkalaemia, Moderate, %” value (Part 1, Active (N = 133))?
Answer: The value was “(3.0) %”.

Question: What about the “On-treatment TEAE, Hyperkalaemia, Severe, %” value (Part 1, Active (N = 133)) of the same compound?
Answer: The value was “(0.8) %”.

Question: And the “On-treatment TEAE, Hypertension, %” value (Part 1, Active (N = 133))?
Answer: The value was “(3.8) %”.

Question: What about the “On-treatment TEAE, Hypertension, Moderate, %” value (Part 1, Active (N = 133)) of the same compound?
Answer: The value was “(2.3) %”.

Question: And the “On-treatment TEAE, Infections and infestations, %” value (Part 1, Active (N = 133))?
Answer: Its value is “(8.3) %”.

Question: And the “On-treatment TEAE, Infections and infestations, Mild, %” value (Part 1, Active (N = 133))?
Answer: Its value is “(3.8) %”.

Question: What about the “On-treatment TEAE, Infections and infestations, Moderate, %” value (Part 1, Active (N = 133)) of the same compound?
Answer: Its value is “(4.5) %”.

Question: What about the “On-treatment TEAE, Investigations, %” value (Part 1, Active (N = 133)) of the same compound?
Answer: Its value is “(15.8) %”.

Question: And the “On-treatment TEAE, Investigations, Mild, %” value (Part 1, Active (N = 133))?
Answer: Its value is “(12.8) %”.

Question: And the “On-treatment TEAE, Investigations, Moderate, %” value (Part 1, Active (N = 133))?
Answer: Its value is “(3.0) %”.

Question: What about the “On-treatment TEAE, Metabolism and nutrition disorders, %” value (Part 1, Active (N = 133)) of the same compound?
Answer: The value was “(25.6) %”.

Question: What about the “On-treatment TEAE, Metabolism and nutrition disorders, Mild, %” value (Part 1, Active (N = 133)) of the same compound?
Answer: The value was “(21.8) %”.

Question: And the “On-treatment TEAE, Metabolism and nutrition disorders, Moderate, %” value (Part 1, Active (N = 133))?
Answer: Its value is “(3.0) %”.

Question: And the “On-treatment TEAE, Nervous system disorders, %” value (Part 1, Active (N = 133))?
Answer: The value was “(6.0) %”.

Question: What about the “On-treatment TEAE, Nervous system disorders, Mild, %” value (Part 1, Active (N = 133)) of the same compound?
Answer: The value was “(4.5) %”.

Question: What about the “On-treatment TEAE, Orthostatic hypotension, %” value (Part 1, Active (N = 133)) of the same compound?
Answer: The value was “(2.3) %”.

Question: And the “On-treatment TEAE, Orthostatic hypotension, Mild, %” value (Part 1, Active (N = 133))?
Answer: The value was “(2.3) %”.

Question: And the “On-treatment TEAE, Psychiatric disorders, %” value (Part 1, Active (N = 133))?
Answer: The value was “(2.3) %”.

Question: What about the “On-treatment TEAE, Psychiatric disorders, Moderate, %” value (Part 1, Active (N = 133)) of the same compound?
Answer: Its value is “(2.3) %”.

Question: What about the “On-treatment TEAE, Urinary tract infection, %” value (Part 1, Active (N = 133)) of the same compound?
Answer: The value was “(5.3) %”.

Question: And the “On-treatment TEAE, Urinary tract infection, Mild, %” value (Part 1, Active (N = 133))?
Answer: The value was “(3.0) %”.

Question: And the “On-treatment TEAE, Vascular disorders, %” value (Part 1, Active (N = 133))?
Answer: Its value is “(6.8) %”.

Question: And the “On-treatment TEAE, Vascular disorders, Mild, %” value (Part 1, Active (N = 133))?
Answer: Its value is “(3.8) %”.

Question: And the “On-treatment TEAE, Vascular disorders, Moderate, %” value (Part 1, Active (N = 133))?
Answer: Its value is “(3.0) %”.

Question: What about the “Subjects with any On-treatment TEAEs leading to withdrawal from study drug, %” value (Part 1, Active (N = 133)) of the same compound?
Answer: The value was “(7.5) %”.

Question: And the “Subjects with any On-treatment TEAEs, Mild, %” value (Part 1, Active (N = 133))?
Answer: Its value is “(35.3) %”.

Question: And the “Subjects with any On-treatment TEAEs, Moderate, %” value (Part 1, Active (N = 133))?
Answer: Its value is “(18.8) %”.

Question: And the “Subjects with any On-treatment TEAEs, Severe, %” value (Part 1, Active (N = 133))?
Answer: Its value is “(0.8) %”.

Question: And the “TEAE leading to permanent discontinuation from study drug, Activated partial thromboplastin time prolonged, %” value (Part 1, Active (N = 133))?
Answer: Its value is “(0.8) %”.

Question: And the “TEAE leading to permanent discontinuation from study drug, Cardiac disorders, %” value (Part 1, Active (N = 133))?
Answer: Its value is “(0.8) %”.

Question: And the “TEAE leading to permanent discontinuation from study drug, Coronary artery disease, %” value (Part 1, Active (N = 133))?
Answer: The value was “(0.8) %”.

Question: And the “TEAE leading to permanent discontinuation from study drug, Dizziness, %” value (Part 1, Active (N = 133))?
Answer: Its value is “(0.8) %”.

Question: And the “TEAE leading to permanent discontinuation from study drug, Hyperkalaemia, %” value (Part 1, Active (N = 133))?
Answer: Its value is “(3.8) %”.

Question: And the “TEAE leading to permanent discontinuation from study drug, Hypertension, %” value (Part 1, Active (N = 133))?
Answer: The value was “(0.8) %”.

Question: What about the “TEAE leading to permanent discontinuation from study drug, Hypotension, %” value (Part 1, Active (N = 133)) of the same compound?
Answer: Its value is “(0.8) %”.

Question: What about the “TEAE leading to permanent discontinuation from study drug, Investigations, %” value (Part 1, Active (N = 133)) of the same compound?
Answer: Its value is “(0.8) %”.

Question: And the “TEAE leading to permanent discontinuation from study drug, Metabolism and nutrition disorders, %” value (Part 1, Active (N = 133))?
Answer: The value was “(3.8) %”.

Question: What about the “TEAE leading to permanent discontinuation from study drug, Nervous system disorders, %” value (Part 1, Active (N = 133)) of the same compound?
Answer: Its value is “(0.8) %”.

Question: What about the “TEAE leading to permanent discontinuation from study drug, Orthostatic hypotension, %” value (Part 1, Active (N = 133)) of the same compound?
Answer: Its value is “(0.8) %”.
